Data reported in article PMC3048538, “Differences in the mannose oligomer specificities of the closely related lectins from Galanthus nivalis and Zea mays strongly determine their eventual anti-HIV activity” (Retrovirology, 2011).
“Also recorded” adds a separate entry of the source.

Assays:
immobilized GNA = immobilized GNA (Galanthus nivalis, UniProt P30617); test: SPR steady-state affinity of oligosaccharides with immobilized GNA; conditions: apparent, N.D. = not detectable, no binding curves
Protocol: (§1) The experimental data were fit using the steady-state affinity model (Biacore T100 Evaluation software 2.0.2) to determine the apparent KD-values.
(§2) The apparent KD was calculated by steady-state affinity analysis (Table 6).

immobilized GNAmaize = test: SPR steady-state affinity of oligosaccharides with immobilized GNAmaize; parameters: species or system Zea mays; conditions: apparent, N.D. = not detectable, binding detected = KD could not be determined
Protocol: as §1, §2

HIV-1(IIIB) = test: Antiretrovirus assay, HIV-1(IIIB)-induced cytopathicity (syncytium formation) in CEM cell cultures; assay type: cell-based; conditions: inhibit virus-induced cytopathicity in CEM cell cultures by 50%
Protocol: (§3) CEM cells (5 × 10^5 cells per ml) were suspended in fresh culture medium and infected with HIV-1 and HIV-2 at 100 times the CCID50 (50% cell culture infective doses) per ml of cell suspension, of which 100 μl was mixed with 100 μl of the appropriate dilutions of the test compounds, and further incubated at 37°C. After 4 to 5 days, syncytia formation was recorded microscopically in the cell cultures. The 50% effective concentration (EC50) corresponds to the compound concentration required to prevent syncytium formation by 50% in the virus-infected CEM cell cultures.

[1] = tested on: HIV-1 ID12 (clade A/E, R5); test: p24 production in HIV-infected PBMC, clinical isolate ID12; assay type: cell-based; conditions: inhibit p24 production of HIV-infected PBMC
Protocol: (§4) Buffy coat preparations from healthy donors were obtained from the Blood Bank in Leuven. Peripheral blood mononuclear cells (PBMC) were isolated by density gradient centrifugation over Lymphoprep (density = 1.077 g/ml; Nycomed, Oslo, Norway). The PBMC were transferred to RPMI 1640 medium supplemented with 10% fetal calf serum (BioWhittaker Europe) and 2 mM L-glutamine and then stimulated for 3 days with phytohemagglutinin (PHA; Murex Biotech Limited, Dartford, United Kingdom) at 2 μg/ml. […] Supernatant was collected at days 8 to 10, and HIV-1 core antigen in the culture supernatant was analyzed by the p24 core antigen enzyme-linked immunosorbent assay (ELISA; DuPont-Merck Pharmaceutical Co., Wilmington, Del.).

[2] = tested on: HIV-1 UG273 (clade A, R5); test: p24 production in HIV-infected PBMC, clinical isolate UG273; assay type: cell-based; conditions: inhibit p24 production of HIV-infected PBMC
Protocol: as §4

[3] = tested on: transmission of DC-SIGN-captured HIV-1(IIIB) to CD4+ T-lymphocyte C8166 cells; test: Transmission of DC-SIGN-captured HIV-1(IIIB) to C8166 cells (syncytia formation); assay type: cell-based; conditions: transmission of DC-SIGN-captured virions to CD4+ T cells (C8166)
Protocol: (§5) The experiment was performed as described previously. Briefly, B-lymphocyte DC-SIGN-expressing (Raji/DC-SIGN) cells were suspended in cell culture medium at 2 × 10^6 cells/ml. 100 μl of HIV-1(IIIB) (~250,000 pg p24) were added in the presence of 400 μl of serial dilutions of the test compounds. After 60 minutes of incubation, the cells were carefully washed 3 times to remove unbound virions and resuspended in 1 ml of cell culture medium. The captured HIV-1(IIIB) was quantified by a p24 Ag ELISA. From the Raji/DC-SIGN cell suspension, 200 μl were also added to the wells of a 48-well microtiter plate in the presence of 800 μl uninfected C8166 cells (2.5 × 10^5 cells/ml). These cocultures were further incubated at 37°C, and syncytia formation was evaluated microscopically after ~ 18 to 42 h, and viral p24 Ag determination in the culture supernatants was performed.
(§6) One hour later, free virus particles and the test compounds were carefully removed from the cell cultures by several washing steps.

[4] = tested on: HIV-1 DJ259 (clade C, R5); test: p24 production in HIV-infected PBMC, clinical isolate DJ259; assay type: cell-based; conditions: inhibit p24 production of HIV-infected PBMC
Protocol: as §4

HIV-1(BaL) (Clade B) = test: p24 production in HIV-infected PBMC, BaL; assay type: cell-based; conditions: inhibit p24 production of HIV-infected PBMC
Protocol: as §4

[5] = tested on: DC-SIGN-mediated capture of HIV-1(IIIB) by Raji/DC-SIGN cells; test: Capture of HIV-1(IIIB) by Raji/DC-SIGN cells (p24 Ag ELISA); assay type: cell-based; conditions: HIV-1(IIIB) capture by Raji/DC-SIGN cells
Protocol: as §5, §6

HIV-2(ROD) = test: Antiretrovirus assay, HIV-2(ROD)-induced cytopathicity (syncytium formation) in CEM cell cultures; assay type: cell-based; conditions: inhibit virus-induced cytopathicity in CEM cell cultures by 50%
Protocol: as §3

[6] = tested on: syncytia formation between HuT-78/HIV-1 and Sup-T1 cells; test: Co-cultivation assay between Sup-T1 and persistently HIV-1-infected HuT-78 cells (syncytia formation); assay type: cell-based, Human; conditions: inhibit syncytia formation between HuT-78/HIV-1 and Sup-T1 cells by 50%
Protocol: Persistently HIV-1(IIIB)-infected HuT-78 cells (designated HuT-78/HIV-1) were washed to remove cell-free virus from the culture medium, and 5 × 10^4 cells (50 μl) were transferred to 96-well microtiter plates. Next, a similar amount of Sup-T1 cells (50 μl) and appropriate concentrations of test compound (100 μl), were added to each well.

immobilized GNA, sequence (P30617 24-128): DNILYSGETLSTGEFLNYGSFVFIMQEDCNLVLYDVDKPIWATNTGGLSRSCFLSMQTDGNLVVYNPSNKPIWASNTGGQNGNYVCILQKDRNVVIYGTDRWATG

## CC(=O)N[C@H]1[C@H](O[C@@H]2C(O)O[C@H](CO)[C@@H](O)[C@@H]2O)O[C@H](CO)[C@@H](O)[C@@H]1O (some centres unmarked) [GlcNAcβ1,2Man, GlcNAcß1,2Man]
Immobilized GNA
  KD, immobilized GNA: didn't bind; also recorded: not to GNA
Immobilized GNAmaize
  KD, immobilized GNAmaize: binding detected^b
Immobilized GNAmaize; listed as GlcNAcß1,2Man
  KD, immobilized GNAmaize: able to measurably bind

## OC[C@H]1O[C@H](O[C@@H]2[C@@H](O[C@@H]3C(O)O[C@H](CO)[C@@H](O)[C@@H]3O)O[C@H](CO)[C@@H](O)[C@@H]2O)[C@@H](O)[C@@H](O)[C@@H]1O (stereo partly drawn) [(α1,2-man)3]
Immobilized GNA
  Kd: > 1000 µM
Immobilized GNAmaize
  KD, immobilized GNAmaize: did not bind

## CC(=O)N[C@H]1[C@H](O[C@H]2[C@H](O)[C@@H](NC(C)=O)C(O)O[C@@H]2CO)O[C@H](CO)[C@@H](O[C@@H]2O[C@H](CO[C@H]3O[C@H](CO)[C@@H](O)[C@H](O)[C@@H]3O[C@@H]3O[C@H](CO)[C@@H](O)[C@H](O)[C@H]3NC(C)=O)[C@@H](O)[C@H](O[C@H]3O[C@H](CO)[C@@H](O)[C@H](O)[C@@H]3O[C@@H]3O[C@H](CO)[C@@H](O)[C@H](O)[C@H]3NC(C)=O)[C@@H]2O)[C@@H]1O (some centres unmarked) [GlcNAcβ1,2Manα1,3(GlcNAcβ1,2Manα1,6)Manβ1,4GlcNAcβ1,4GlcNAc]
Immobilized GNA
  KD, immobilized GNA: not to GNA
Immobilized GNAmaize
  KD, immobilized GNAmaize: binding detected^b
Immobilized GNAmaize; listed as GlcNAcβ1,2Manα1,3(GlcNAcβ1,2Manα1,6) Manβ1,4GlcNAcβ1,4GlcNAc
  KD, immobilized GNAmaize: able to bind

## GNA: mannose-specific tetrameric plant lectin of 50 kDa from snowdrop (Galanthus nivalis) bulbs
HIV-1(IIIB)
  EC50: 0.007 ± 0.001 µM
[1]
  EC50 Clade A/E, ID12: 0.38 µM
[2]
  EC50: 0.046 µM
[3]
  EC50: 0.006 ± 0.005 µM
[4]
  EC50: 0.84 µM
HIV-1(BaL) (Clade B)
  EC50: 0.13 µM
[5]
  EC50: 0.04 ± 0.01 µM
HIV-2(ROD)
  EC50: 0.008 ± 0.001 µM
[6]
  EC50: 0.062 ± 0.064 µM

## OC[C@H]1O[C@H](O[C@H]2[C@H](O)[C@@H](CO)OC(O)[C@H]2O)[C@@H](O)[C@@H](O)[C@@H]1O (stereo partly drawn) [(α1,3-man)2]
Immobilized GNA
  KD, immobilized GNA: preferentially bind
  Kd: > 2000 µM
Immobilized GNAmaize
  KD, immobilized GNAmaize: did not bind
